pIC50, pKd, pKi: −log10 of the molar value. Like-named read-outs stand apart in the source and are kept apart here.
How the values were obtained:
FR2 = FR2 (Homo sapiens, UniProt P14207); conditions: read-out: affinity; cited from earlier work
FR1 = FR1 (Homo sapiens, UniProt P15328); conditions: read-out: affinity; cited from earlier work
KIFC1 = KIFC1 (Homo sapiens, UniProt Q9BW19); conditions: ATP-competitive, MT-noncompetitive; cited from earlier work
[1] = system: BT-549 breast cancer cells; conditions: cells with amplified centrosomes; cited from earlier work
CYP2B6 = CYP2B6 (Homo sapiens, UniProt P20813); experiment: CYP inhibition in human liver microsomes
CYP2C8 = CYP2C8 (Homo sapiens, UniProt P10632); experiment: CYP inhibition in human liver microsomes
CYP2C9 = CYP2C9 (Homo sapiens, UniProt P11712); experiment: CYP inhibition in human liver microsomes
[2] = Blood plasma concentration ratio assay; type: in vitro ADME, mice; conditions: whole blood; mouse blood, 37° C.; read-out: Blood to plasma ratio (BPR)
Protocol: Values and error bars shown in the figure represent mean and SE, respectively.
100 μl and 300 μl aliquots were collected at time points 0, 15, 30 and 60 min. 100 μl water was added to each of the 100 μl aliquots followed by vortexing, centrifugation at 8000 g for 10 min, and collection of the supernatants for bioanalysis. The 300 μL aliquots were centrifuged at 8000 g for 10 min to separate the plasma, followed by collection of the supernatants for bioanalysis.

CYP2E1 = CYP2E1 (Homo sapiens, UniProt P05181); experiment: CYP inhibition in human liver microsomes
CYP2D6 = CYP2D6 (Homo sapiens, UniProt P10635); experiment: CYP inhibition in human liver microsomes
CYP2C19 = CYP2C19 (Homo sapiens, UniProt P33261); experiment: CYP inhibition in human liver microsomes
[3] = Stability in simulated intestinal fluid (SIF); type: in vitro ADME; conditions: 10 μM, SIF pH 6.8, after 2 h
Protocol: (§1) Samples (100 μl) were drawn at 0, 15, 30 and 60 min from SGF reaction-vials and at 0, 30, 60 and 120 min from SIF reaction-vials, quenched with acetonitrile, vortex-mixed, and centrifuged before supernatant analysis by LC-MS/MS analysis. […] For PK studies, a sparse sampling design with 3 mice per time point was used to collect blood samples at 5, 10, 15, 30 min and 1, 2, 3, 4, 5 and 6 h in K2EDTA-coated tubes. The pharmacokinetic parameters (AUClast, Cmax, CL and Vss) were calculated using non-compartmental analysis tool of Phoenix WinNonlin software (version 6.3).
(§2) Given the extreme pH and various digestive enzymes, the GI tract presents a harsh environment to any ingested xenobiotic. Thus, many potential drug candidates are degraded in the GI tract, explaining their decreased bioavailability or inability to reach the target at effective concentrations. Simulated gastric fluid (SGF; pH 1.2) and simulated intestinal fluid (SIF; pH 6.8) closely mimic the GI tract environment and are amenable in vitro systems to evaluate degradation of a compound in GI tract (US Pharmacopoia).
(§3) Simulated gastric fluid was prepared as per U.S. Pharmacopeia (USP) methods. Sodium chloride (2 g) and pepsin (3.2 g, from porcine stomach mucosa) were dissolved in 7.0 ml hydrochloric acid and Milli-Q water to make up the volume to 1000 ml and the pH was adjusted to 1.2. […]

[4] = Pharmacokinetic studies, single oral and intravenous dose; type: in vivo, BALB/c mice; conditions: male, BALB/c, mouse, plasma, analyte PhosE; for Cmax: read-out: Cmax/C0
Protocol: as §1
Nine animals per group were used for PK studies. A sparse sampling design was used to collect blood samples from animals at 5 min, 10 min, 15 min, 30 min, 1, 2, 3, 4, 5, and 6 h in K2EDTA coated tubes. Plasma was collected from blood by centrifugation of samples at 8000 g for 10 min. Plasma samples were stored below −60° C. until further analysis.
PK parameters were calculated from the concentration-time data using the non-compartmental analysis tool of Phoenix WinNolin® software (version 6.3, Pharsight, St Louis, Mo.). The area under the concentration time curve (AUClast) was calculated by the linear trapezoidal rule. Following oral administration, peak concentration (Cmax) and time for the peak concentration (Tmax) were the observed values. The clearance (CL) and volume of distribution (Vss) were estimated following IV dose administration. The elimination rate constant value (k) was obtained by linear regression of the log-linear terminal phase of the concentration-time profile using at least three declining concentrations in terminal phase with a correlation coefficient of >0.8. The terminal half-life value (T1/2) was calculated using the equation ln 2/k. Oral bioavailability was calculated by taking the ratio of dose normalized AUClast following oral administration to IV administration.

CYP3A4 = CYP3A4 (Homo sapiens, UniProt P08684); experiment: CYP inhibition in human liver microsomes
CYP2A6 = CYP2A6 (Homo sapiens, UniProt P11509); experiment: CYP inhibition in human liver microsomes
PC-3 cells [5] = experiment: MTT cell proliferation assay; type: cell-based, human; conditions: MTT, 48 h, pH 7.4
Protocol: (§4) Next, a clonogenic cell survival assay was performed to assess the reproductive capacity of cells upon drug removal.
(§5) After 48 h, drug containing medium was replaced by medium containing MTT (tetrazolium bromide) at a concentration of 0.5 mg/ml. The yellow tetrazolium salt is reduced to insoluble purple formazan by viable cells. After 4 h of incubation in dark, formazan crystals produced by viable cells were dissolved by 200 μl DMSO and the amount of formazan crystals formed was quantified by recording the absorbance at 570 nm using multi-well plate reader. […] After 10 days, colonies were fixed with 4% formaldehyde, stained with crystal violet and counted.

PC-3 cells [6] = experiment: Clonogenic cell survival (colony) assay; type: cell-based, human; conditions: 2 mg/ml, 48 h treatment, colonies after 10 days
Protocol: as §4, §5

[7] = Stability in simulated gastric fluid (SGF); type: in vitro ADME; conditions: 10 μM, SGF pH 1.2, over 1 h
Protocol: as §1, §2, §3

CYP1A2 = CYP1A2 (Homo sapiens, UniProt P05177); experiment: CYP inhibition in human liver microsomes
PC-3 cells [8] = experiment: Intracellular levels of Etn and PhosE by LC-MS/MS; type: cell-based, human; conditions: 1 mg/ml, 48 h, pH 7.4

CYP3A4, sequence (P08684 whole entry): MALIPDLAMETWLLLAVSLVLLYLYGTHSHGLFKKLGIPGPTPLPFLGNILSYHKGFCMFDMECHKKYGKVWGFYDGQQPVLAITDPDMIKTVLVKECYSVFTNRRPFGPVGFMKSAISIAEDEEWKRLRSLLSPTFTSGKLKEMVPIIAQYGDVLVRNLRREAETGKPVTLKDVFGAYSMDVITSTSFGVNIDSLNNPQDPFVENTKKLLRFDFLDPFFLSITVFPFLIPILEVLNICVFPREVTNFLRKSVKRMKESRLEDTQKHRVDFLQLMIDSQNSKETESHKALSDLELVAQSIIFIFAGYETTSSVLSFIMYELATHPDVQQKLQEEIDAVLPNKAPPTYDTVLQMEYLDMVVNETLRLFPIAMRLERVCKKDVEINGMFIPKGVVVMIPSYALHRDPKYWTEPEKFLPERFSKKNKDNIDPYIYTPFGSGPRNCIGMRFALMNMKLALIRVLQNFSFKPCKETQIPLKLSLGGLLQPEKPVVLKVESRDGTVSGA
FR1, sequence (P15328 25-234): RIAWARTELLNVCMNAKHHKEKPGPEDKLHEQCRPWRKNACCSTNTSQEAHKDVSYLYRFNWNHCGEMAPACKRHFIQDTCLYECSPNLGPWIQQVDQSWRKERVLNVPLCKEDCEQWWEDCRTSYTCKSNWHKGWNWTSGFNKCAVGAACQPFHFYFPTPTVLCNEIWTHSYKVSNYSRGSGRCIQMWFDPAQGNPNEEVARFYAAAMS
FR2, sequence (P14207 17-230): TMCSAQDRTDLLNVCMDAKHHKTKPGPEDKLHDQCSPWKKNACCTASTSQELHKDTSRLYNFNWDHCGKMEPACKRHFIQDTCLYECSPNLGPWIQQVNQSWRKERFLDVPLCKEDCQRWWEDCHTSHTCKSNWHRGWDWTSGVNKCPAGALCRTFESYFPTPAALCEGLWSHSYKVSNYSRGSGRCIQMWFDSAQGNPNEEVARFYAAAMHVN
CYP2C19, sequence (P33261 whole entry): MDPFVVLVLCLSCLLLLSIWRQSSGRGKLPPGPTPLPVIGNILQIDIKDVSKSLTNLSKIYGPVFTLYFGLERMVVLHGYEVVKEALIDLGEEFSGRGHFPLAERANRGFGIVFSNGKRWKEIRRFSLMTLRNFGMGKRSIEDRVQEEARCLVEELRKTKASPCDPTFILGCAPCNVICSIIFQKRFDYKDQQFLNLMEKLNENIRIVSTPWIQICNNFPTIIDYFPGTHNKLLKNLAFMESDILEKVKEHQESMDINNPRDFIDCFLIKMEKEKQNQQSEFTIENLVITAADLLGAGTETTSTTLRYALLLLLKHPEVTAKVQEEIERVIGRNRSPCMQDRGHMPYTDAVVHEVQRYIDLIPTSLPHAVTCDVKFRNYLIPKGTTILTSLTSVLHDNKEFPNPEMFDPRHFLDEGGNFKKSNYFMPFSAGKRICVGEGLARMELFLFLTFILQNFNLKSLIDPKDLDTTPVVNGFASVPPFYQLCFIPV
CYP2C9, sequence (P11712 whole entry): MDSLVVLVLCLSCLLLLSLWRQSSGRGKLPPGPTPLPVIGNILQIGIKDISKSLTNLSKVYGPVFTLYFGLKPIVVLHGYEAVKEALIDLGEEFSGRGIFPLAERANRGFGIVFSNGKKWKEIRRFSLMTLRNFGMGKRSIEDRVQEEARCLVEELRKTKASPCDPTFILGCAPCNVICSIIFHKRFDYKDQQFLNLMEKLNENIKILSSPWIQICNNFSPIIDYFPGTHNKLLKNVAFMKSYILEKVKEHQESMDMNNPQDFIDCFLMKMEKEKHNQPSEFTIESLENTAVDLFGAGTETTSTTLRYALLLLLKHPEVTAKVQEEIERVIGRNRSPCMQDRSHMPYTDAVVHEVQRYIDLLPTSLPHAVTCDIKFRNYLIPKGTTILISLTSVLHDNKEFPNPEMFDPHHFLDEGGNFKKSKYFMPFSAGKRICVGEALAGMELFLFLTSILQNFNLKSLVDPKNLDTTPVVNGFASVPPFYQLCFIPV
CYP1A2, sequence (P05177 whole entry): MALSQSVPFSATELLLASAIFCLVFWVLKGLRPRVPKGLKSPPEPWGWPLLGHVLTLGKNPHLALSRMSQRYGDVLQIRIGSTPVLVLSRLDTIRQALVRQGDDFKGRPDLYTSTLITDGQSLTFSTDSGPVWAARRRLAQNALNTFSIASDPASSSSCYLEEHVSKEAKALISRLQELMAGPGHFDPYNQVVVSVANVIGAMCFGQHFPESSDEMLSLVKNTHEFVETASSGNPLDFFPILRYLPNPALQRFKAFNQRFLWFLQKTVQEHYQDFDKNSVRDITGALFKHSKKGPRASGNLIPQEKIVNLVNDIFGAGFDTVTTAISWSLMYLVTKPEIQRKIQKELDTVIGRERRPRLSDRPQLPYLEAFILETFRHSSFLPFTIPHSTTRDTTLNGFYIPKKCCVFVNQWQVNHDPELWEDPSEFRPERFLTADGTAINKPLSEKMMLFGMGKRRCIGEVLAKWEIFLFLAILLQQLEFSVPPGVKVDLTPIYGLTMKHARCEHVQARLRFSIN
CYP2C8, sequence (P10632 whole entry): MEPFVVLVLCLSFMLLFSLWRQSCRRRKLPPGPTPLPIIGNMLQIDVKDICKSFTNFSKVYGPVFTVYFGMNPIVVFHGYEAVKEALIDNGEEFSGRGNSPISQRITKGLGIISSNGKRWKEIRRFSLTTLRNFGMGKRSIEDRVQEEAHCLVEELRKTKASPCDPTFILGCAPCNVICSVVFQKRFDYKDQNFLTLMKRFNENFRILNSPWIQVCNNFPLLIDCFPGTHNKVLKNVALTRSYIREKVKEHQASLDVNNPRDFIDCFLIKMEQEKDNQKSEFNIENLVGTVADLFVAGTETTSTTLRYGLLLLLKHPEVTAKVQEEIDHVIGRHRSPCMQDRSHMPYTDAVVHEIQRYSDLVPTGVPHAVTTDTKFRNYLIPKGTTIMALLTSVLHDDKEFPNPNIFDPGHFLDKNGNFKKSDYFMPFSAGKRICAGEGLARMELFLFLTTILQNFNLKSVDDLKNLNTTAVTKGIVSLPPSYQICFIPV
CYP2E1, sequence (P05181 whole entry): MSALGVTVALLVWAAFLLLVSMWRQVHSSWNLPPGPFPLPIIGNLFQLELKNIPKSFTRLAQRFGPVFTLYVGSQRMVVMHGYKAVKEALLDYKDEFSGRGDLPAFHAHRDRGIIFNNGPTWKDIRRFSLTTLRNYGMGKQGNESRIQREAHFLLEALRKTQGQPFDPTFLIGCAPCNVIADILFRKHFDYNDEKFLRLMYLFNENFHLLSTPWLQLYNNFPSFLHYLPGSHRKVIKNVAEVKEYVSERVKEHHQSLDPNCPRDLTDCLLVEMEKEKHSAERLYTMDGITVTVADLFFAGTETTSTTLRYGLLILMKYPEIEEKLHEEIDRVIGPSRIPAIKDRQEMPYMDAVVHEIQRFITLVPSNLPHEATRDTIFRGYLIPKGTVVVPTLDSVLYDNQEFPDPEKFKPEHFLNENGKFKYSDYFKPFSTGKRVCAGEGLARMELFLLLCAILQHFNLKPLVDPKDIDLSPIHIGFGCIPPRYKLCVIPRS
CYP2D6, sequence (P10635 whole entry): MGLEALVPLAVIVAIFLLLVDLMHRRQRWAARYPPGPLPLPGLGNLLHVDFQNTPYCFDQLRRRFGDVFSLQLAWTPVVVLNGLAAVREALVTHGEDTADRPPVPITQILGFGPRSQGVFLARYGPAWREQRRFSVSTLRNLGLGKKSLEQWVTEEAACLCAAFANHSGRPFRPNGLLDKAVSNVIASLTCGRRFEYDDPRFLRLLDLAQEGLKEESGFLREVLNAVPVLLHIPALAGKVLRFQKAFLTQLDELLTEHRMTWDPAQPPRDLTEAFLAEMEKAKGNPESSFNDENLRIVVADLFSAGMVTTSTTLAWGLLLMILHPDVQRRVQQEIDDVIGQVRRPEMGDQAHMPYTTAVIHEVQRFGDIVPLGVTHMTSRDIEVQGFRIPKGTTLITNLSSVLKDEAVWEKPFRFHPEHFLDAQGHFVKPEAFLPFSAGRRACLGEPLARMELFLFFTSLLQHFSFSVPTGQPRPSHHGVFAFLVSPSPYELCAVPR
CYP2B6, sequence (P20813 whole entry): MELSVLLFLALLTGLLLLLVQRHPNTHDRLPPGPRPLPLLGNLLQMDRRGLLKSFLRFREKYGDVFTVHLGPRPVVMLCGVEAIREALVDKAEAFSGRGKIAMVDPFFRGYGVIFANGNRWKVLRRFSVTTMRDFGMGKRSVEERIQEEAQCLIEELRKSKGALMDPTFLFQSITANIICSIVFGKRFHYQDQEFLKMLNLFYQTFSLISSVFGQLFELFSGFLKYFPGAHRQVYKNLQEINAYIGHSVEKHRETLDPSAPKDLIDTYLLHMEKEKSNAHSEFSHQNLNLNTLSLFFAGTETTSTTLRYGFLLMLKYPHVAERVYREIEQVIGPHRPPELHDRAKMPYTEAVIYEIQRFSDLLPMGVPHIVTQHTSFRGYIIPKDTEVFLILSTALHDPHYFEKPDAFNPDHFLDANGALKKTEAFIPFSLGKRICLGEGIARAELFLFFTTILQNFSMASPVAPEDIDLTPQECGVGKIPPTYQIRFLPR
CYP2A6, sequence (P11509 whole entry): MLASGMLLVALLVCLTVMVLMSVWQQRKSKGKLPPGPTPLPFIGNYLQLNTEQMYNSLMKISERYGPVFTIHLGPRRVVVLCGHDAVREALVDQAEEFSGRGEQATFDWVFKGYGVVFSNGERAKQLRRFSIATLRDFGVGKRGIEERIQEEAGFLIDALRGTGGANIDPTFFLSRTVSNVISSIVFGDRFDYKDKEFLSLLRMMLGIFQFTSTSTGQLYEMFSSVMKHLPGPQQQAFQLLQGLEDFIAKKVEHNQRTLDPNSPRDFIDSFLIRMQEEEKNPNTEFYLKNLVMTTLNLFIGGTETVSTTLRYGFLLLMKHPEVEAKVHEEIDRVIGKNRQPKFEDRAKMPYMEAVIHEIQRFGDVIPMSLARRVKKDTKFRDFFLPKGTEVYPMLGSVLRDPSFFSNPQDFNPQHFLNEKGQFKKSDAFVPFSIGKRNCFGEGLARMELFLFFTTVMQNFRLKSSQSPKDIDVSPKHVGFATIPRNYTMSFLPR

In the case of `Nc1nc2c(c(=O)[nH]1)N(C=O)C(CNc1ccc(C(=O)N[C@@H](CCC(=O)O)C(=O)O)cc1)CN2` (stereo partly drawn) [leucovorin, 6S 5-formyltetrahydrofolate], the pKd (FR2) is given as 8.15 and the pKd (FR1) is given as 6.10.
In the case of `CCCc1cc(C(=O)N[C@H](Cc2ccc(-c3cccc(OC(F)(F)F)c3)nc2)C(=O)N[C@@H]2CCNC2)sc1C` [AZ82], the pKi (KIFC1) is listed as 7.37 and the centrosome declustering [1] is listed as “causes centrosome declustering”.
For `CN1c2c(nc(N)[nH]c2=O)NC[C@@H]1CNc1ccc(C(=O)N[C@@H](CCC(=O)O)C(=O)O)cc1` [6S 5-methyltetrahydrofolate], the pKd (FR2) is listed as 9.00 and the pKd (FR1) is listed as 7.26.
`NCCOP(=O)(O)O` [PhosE, phosphoethanolamine] showed a pIC50 (CYP2B6) of less than 4.00, a pIC50 (CYP2C8) of less than 4.00 and a pIC50 (CYP2C9) of less than 4.00. For the same compound, the blood plasma ratio at 50 μM [2] was less than 1.5, the pIC50 (CYP2E1) was less than 4.00 and the pIC50 (CYP2D6) was less than 4.00. The pIC50 (CYP2C19) was less than 4.00, the “decrease in concentration in SIF” value [3] was roughly 35% and the half-life ([4]; iv, 3 mg/kg, PhosE 3 mg/kg iv) was less than 1 h. It also gave an AUC(0-t) ([4]; PhosE 3 mg/kg iv) of 490 ng·h/mL, an MRT last ([4]; PhosE 3 mg/kg iv) of 0.79 h and a clearance ([4]; PhosE 3 mg/kg iv) of 102 mL/min/kg. The Cmax ([4]; PhosE 3 mg/kg iv) was 1250 ng/mL, the Vd ([4]; PhosE 3 mg/kg iv, read-out: Vss) was 4.82 L/kg and the bioavailability ([4]; PhosE 60 mg/kg po vs 3 mg/kg iv, read-out: F (oral bioavailability)) was 19%. It also gave an AUC(0-t) ([4]; PhosE 60 mg/kg po) of 1890 ng·h/mL, a Tmax ([4]; PhosE 60 mg/kg po) of 1 h and a Cmax ([4]; PhosE 60 mg/kg po) of 1140 ng/mL. For the same compound, the pIC50 (CYP3A4) was less than 4.00, the pIC50 (CYP3A4; 3A4-mida: CYP3A4 substrate midazolam, human liver microsomes) was less than 4.00 and the pIC50 (CYP3A4; 3A4-testo: CYP3A4 substrate testosterone, human liver microsomes) was less than 4.00. For the same compound, the pIC50 (CYP2A6) was less than 4.00, the “inhibition of PC-3 cell proliferation” value (PC-3 cells [5]) was “only showed limited inhibition of PC-3 cell proliferation up to 0.5 mg/ml” and the “decrease in colony numbers compared to control cells” value (PC-3 cells [6]) was “ineffective in decreasing colony numbers”. For the same compound, the “stability in SGF” value [7] was “stable”, the pIC50 (CYP1A2) was less than 4.00 and the “increase in intracellular PhosE levels compared to control cells” value (PC-3 cells [8]) was roughly 15 fold.

— patent publication US11607421B2, “Ethanolamine-based lipid biosynthetic compounds, method of making and use thereof” (Metanoi Therapeutics, Inc., priority 2016, dated 2023)
